Assay results as given in PMC6123363, “Functional Characterization of c-di-GMP Signaling-Related Genes in the Probiotic Lactobacillus acidophilus” (Frontiers in Microbiology, 2018).

How the values were obtained:
[1] = molecular target: T1, MBP-EALpdeB (EAL domain of PdeB) (Lactobacillus acidophilus, UniProt Q5FJ84); experiment: equilibrium dialysis with HPLC quantification; type: binding
T1 construct: gene LBA1415; EAL domain (residues 32-267, ELLLR motif, no N-terminal membrane targeting signal), MBP fusion in pMAL-c2, expressed in E. coli BL21, amylose column; MBP kept
T1 sequence (Q5FJ84 32-267): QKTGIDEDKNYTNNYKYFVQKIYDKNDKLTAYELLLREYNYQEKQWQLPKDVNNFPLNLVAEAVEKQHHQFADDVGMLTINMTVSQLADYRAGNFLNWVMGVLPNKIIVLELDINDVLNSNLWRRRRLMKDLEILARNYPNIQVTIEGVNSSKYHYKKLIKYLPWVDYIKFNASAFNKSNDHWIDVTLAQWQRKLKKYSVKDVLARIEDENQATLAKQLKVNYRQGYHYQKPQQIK

MBP-PdeA = molecular target: T2, MBP-PdeA (Lactobacillus acidophilus, UniProt Q5FJ85); experiment: PDE assay, reversed-phase HPLC; type: biochemical; settings: 10 μM enzyme, 100 μM c-di-GMP, 5 mM MgCl2, 50 mM Tris-HCl pH 9.35, 37 °C
T2 construct: gene LBA1414; pdeA (EAL domain only protein), MBP fusion in pMAL-c2, expressed in E. coli BL21, amylose column; MBP kept
T2 sequence (Q5FJ85 1-231): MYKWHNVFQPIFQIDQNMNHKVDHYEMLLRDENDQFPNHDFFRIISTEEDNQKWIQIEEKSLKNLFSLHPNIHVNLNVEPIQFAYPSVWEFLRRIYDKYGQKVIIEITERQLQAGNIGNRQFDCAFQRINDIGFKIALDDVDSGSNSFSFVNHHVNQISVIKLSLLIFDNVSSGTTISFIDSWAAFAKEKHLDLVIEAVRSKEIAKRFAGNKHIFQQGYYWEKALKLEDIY

Kd [1]	SMILES	PDE assay, reversed-phase HPLC (MBP-PdeA)
4.87 ± 0.89 µM	Nc1nc2c(ncn2[C@@H]2O[C@@H]3COP(=O)(O)O[C@H]4[C@@H](O)[C@H](n5cnc6c(=O)[nH]c(N)nc65)O[C@@H]4COP(=O)(O)O[C@H]3[C@H]2O)c(=O)[nH]1 [c-di-GMP]	PdeA was able to hydrolyze c-di-GMP to pGpG
	Nc1nc2c(ncn2[C@@H]2O[C@H](COP(=O)(O)O[C@H]3[C@@H](O)[C@H](n4cnc5c(=O)[nH]c(N)nc54)O[C@@H]3COP(=O)(O)O)[C@@H](O)[C@H]2O)c(=O)[nH]1 [pGpG]	The PdeA enzymatic reaction product corresponded to the retention time of the pGpG
